Source: patent publication US20080090805A1, “CB-1 MODULATING COMPOUNDS AND THEIR USE” (ACADIA PHARMACEUTICALS INC., priority 2005, published 2008)

Experiments:
[1] = Clearance study, liver microsomes (human); settings: pH 7.4
[2] = Clearance study, liver microsomes (mice); settings: mouse, pH 7.4
[3] = Clearance study, liver microsomes (rats); settings: rat, pH 7.4

SMILES | microsomal CLint at 1 μM [1] | microsomal CLint at 1 μM [2] | microsomal CLint at 1 μM [3]
CCCCNC(=O)c1ccc2c(c1)N=C(c1ccc(Br)cn1)c1ccccc1S2 [drawing 1654] | 63 µL/min/mg | 348 µL/min/mg | 299 µL/min/mg
CCCCNC(=O)c1ccc2c(c1)N=C(c1ccc(Cl)cc1)c1ccccc1S2 [drawing 1661] | – | 99 µL/min/mg | –
CCCCNC(=O)c1ccc2c(c1)N=C(c1ccc(Cl)s1)c1ccccc1S2 [drawing 1669] | 32 µL/min/mg | 266 µL/min/mg | 80 µL/min/mg
O=C(NCc1cccc(Cl)c1)c1ccc2c(c1)N=C(c1ccc(F)cc1)c1ccccc1S2(=O)=O [drawing 1670] | 32 µL/min/mg | 32 µL/min/mg | 31 µL/min/mg
CCCCNC(=O)c1cc2c(cc1O)Sc1ccccc1C(c1ccc(Cl)cc1)=N2 [drawing 1672] | – | 12 µL/min/mg | 7 µL/min/mg
O=C(NC1CCCCC1)c1ccc2c(c1)N=C(c1cccc(Cl)c1)c1ccccc1S2 [drawing 1675] | 12 µL/min/mg | 58 µL/min/mg | 48 µL/min/mg
CC(C)CNC(=O)c1ccc2c(c1)N=C(c1ccc(Cl)s1)c1ccccc1S2 [drawing 1681] | – | 412 µL/min/mg | –
O=C(NC1CCCCC1)c1ccc2c(c1)N=C(c1ccc(F)cc1)c1ccccc1S2 [drawing 1683] | 31 µL/min/mg | 62 µL/min/mg | 108 µL/min/mg
O=C(NN1CCCCCC1)c1ccc2c(c1)N=C(c1ccc(Cl)s1)c1ccccc1S2 [drawing 1687] | 122 µL/min/mg | 360 µL/min/mg | 186 µL/min/mg
O=C(NN1CCCCCC1)c1ccc2c(c1)N=C(c1cccc(Cl)c1)c1ccccc1S2 [drawing 1689] | 59 µL/min/mg | 124 µL/min/mg | 162 µL/min/mg
O=C(NN1CCCCC1)c1ccc2c(c1)N=C(C1CCCCC1)c1ccccc1S2 [drawing 1695] | – | 349 µL/min/mg | –
CCCCNC(=O)c1ccc2c(c1)N=C(c1cccc(F)c1)c1ccccc1S2 [drawing 1700] | 65 µL/min/mg | 647 µL/min/mg | 152 µL/min/mg
CCCCNC(=O)c1ccc2c(c1)N=C(c1ccc(Cl)cn1)c1ccccc1S2 [drawing 1704] | 70 µL/min/mg | 477 µL/min/mg | 320 µL/min/mg
Cc1ccsc1C1=Nc2cc(C(=O)NN3CCCCCC3)ccc2Sc2ccccc21 [drawing 1706] | 118 µL/min/mg | 448 µL/min/mg | 358 µL/min/mg
CCCCNC(=O)c1ccc2c(c1)N=C(c1ccc(Cl)cc1)c1sccc1S2 [drawing 1717] | – | 79 µL/min/mg | –
Cc1ccsc1C1=Nc2cc(C(=O)NN3CCCCC3)ccc2Sc2ccccc21 [drawing 1730] | 50 µL/min/mg | 385 µL/min/mg | 304 µL/min/mg
CC(C)CCNC(=O)c1ccc2c(c1)N=C(c1ccccn1)c1ccccc1S2 [drawing 1784] | – | 68 µL/min/mg | –
O=C(NCc1cccc(Cl)c1)c1ccc2c(c1)N=C(c1ccc(F)cc1)c1ccccc1[S+]2[O-] (stereo not shown) [drawing 1790] | 24 µL/min/mg | – | 76 µL/min/mg
O=C(NN1CCCCC1)c1ccc2c(c1)N=C(N1CCCCC1)c1ccccc1S2 [drawing 1792] | 54 µL/min/mg | – | 536 µL/min/mg
CC(C)CNC(=O)c1ccc2c(c1)N=C(c1ccc(Cl)s1)c1ccc(F)cc1S2 [drawing 1793] | 32 µL/min/mg | – | 49 µL/min/mg
CC(C)CNC(=O)c1ccc2c(c1)N=C(c1cccc(Cl)c1)c1ccccc1S2 [drawing 1795] | – | 69 µL/min/mg | –
O=C(NCc1cccc(Cl)c1)c1ccc2c(c1)N=C(N1CCC(F)(F)CC1)c1ccccc1S2 [drawing 1800] | – | 120 µL/min/mg | –
O=C(NCCc1ccc(Cl)cc1)c1ccc2c(c1)N=C(N1CCC(F)(F)CC1)c1ccccc1S2 [drawing 1802] | 343 µL/min/mg | – | 289 µL/min/mg
O=C(NCc1cccc(Cl)c1)c1ccc2c(c1)N=C(c1cccc(Cl)c1)c1cc(F)ccc1S2 [drawing 1805] | 10 µL/min/mg | – | 61 µL/min/mg
CC(C)CNC(=O)c1ccc2c(c1)N=C(c1ccc(Cl)cn1)c1ccc(Cl)cc1S2 [drawing 1806] | 13 µL/min/mg | – | 135 µL/min/mg
Cc1ccc(N2CCN(C(=O)c3ccc4c(c3)N=C(c3ccc(Cl)cc3)c3ccccc3S4)CC2)c(C)c1 [drawing 1808] | 37 µL/min/mg | – | 39 µL/min/mg

Other lines, results leading:

microsomal CLint at 1 μM [1] | microsomal CLint at 1 μM [2] | microsomal CLint at 1 μM [3] | SMILES
4 µL/min/mg | 566 µL/min/mg | 69 µL/min/mg | O=C(NCc1ccccc1)c1ccc2c(c1)N=C(c1cccc(Br)c1)c1ccccc1S2
42 µL/min/mg | 127 µL/min/mg | 98 µL/min/mg | O=C(NCc1ccco1)c1ccc2c(c1)N=C(c1ccc(Cl)s1)c1ccccc1S2 [drawing 1656]
56 µL/min/mg | 238 µL/min/mg | 166 µL/min/mg | O=C(NCc1cccs1)c1ccc2c(c1)N=C(c1cccc(F)c1)c1ccccc1S2 [drawing 1658]
52 µL/min/mg | 171 µL/min/mg | 171 µL/min/mg | O=C(NCc1cccs1)c1ccc2c(c1)N=C(c1ccc(F)cc1)c1ccccc1S2 [drawing 1659]
19 µL/min/mg | 38 µL/min/mg | 33 µL/min/mg | O=C(NCc1cccnc1)c1ccc2c(c1)N=C(c1ccc(Cl)c(Cl)c1)c1ccccc1S2 [drawing 1664]
25 µL/min/mg | 249 µL/min/mg | 77 µL/min/mg | CC(C)CCNC(=O)c1ccc2c(c1)N=C(c1cccc(Cl)c1)c1ccccc1S2 [drawing 1665]
21 µL/min/mg | 27 µL/min/mg | 25 µL/min/mg | O=C(NCc1ccco1)c1ccc2c(c1)N=C(c1ccc(Cl)c(Cl)c1)c1ccccc1S2 [drawing 1666]
41 µL/min/mg | 82 µL/min/mg | 65 µL/min/mg | O=C(NCCc1cccnc1)c1ccc2c(c1)N=C(c1ccc(Cl)c(Cl)c1)c1ccccc1S2 [drawing 1668]
4 µL/min/mg | 107 µL/min/mg | 26 µL/min/mg | CC(C)CNC(=O)c1ccc2c(c1)N=C(c1ccc(Cl)c(Cl)c1)c1ccccc1S2 [drawing 1671]
28 µL/min/mg | 124 µL/min/mg | 48 µL/min/mg | O=C(NCc1ccccc1Cl)c1ccc2c(c1)N=C(c1cccc(Cl)c1)c1ccccc1S2 [drawing 1674]
32 µL/min/mg | 126 µL/min/mg | 60 µL/min/mg | O=C(NN1CCCCC1)c1ccc2c(c1)N=C(c1ccc(Cl)cc1)c1ccccc1S2 [drawing 1676]
20 µL/min/mg | 98 µL/min/mg | 51 µL/min/mg | CC(C)CNC(=O)c1ccc2c(c1)N=C(c1ccc(Cl)cc1F)c1ccccc1S2 [drawing 1677]
35 µL/min/mg | 133 µL/min/mg | 93 µL/min/mg | O=C(NCc1ccco1)c1ccc2c(c1)N=C(c1cccc(Cl)c1)c1ccccc1S2 [drawing 1684]
3 µL/min/mg | 96 µL/min/mg | 48 µL/min/mg | O=C(NCc1cccc(Cl)c1)c1ccc2c(c1)N=C(c1ccc(Cl)cc1)c1cc(F)ccc1S2 [drawing 1686]
238 µL/min/mg | 122 µL/min/mg | 96 µL/min/mg | O=C(NCCc1cccnc1)c1ccc2c(c1)N=C(c1ccc(Cl)s1)c1ccccc1S2 [drawing 1690]
15 µL/min/mg | 694 µL/min/mg | 63 µL/min/mg | CCCNC(=O)c1ccc2c(c1)N=C(c1ccc(Cl)cc1)c1ccccc1S2 [drawing 1691]
78 µL/min/mg | 218 µL/min/mg | 113 µL/min/mg | COc1ccc(C2=Nc3cc(C(=O)NCC(C)C)ccc3Sc3ccccc32)cc1 [drawing 1708]
8 µL/min/mg | 78 µL/min/mg | 43 µL/min/mg | O=C(NC1CCCCC1)c1ccc2c(c1)N=C(c1ccc(Cl)cc1)c1ccccc1S2 [drawing 1712]
30 µL/min/mg | 184 µL/min/mg | 97 µL/min/mg | O=C(NCc1cccs1)c1ccc2c(c1)N=C(c1ccc(Cl)s1)c1ccccc1S2 [drawing 1723]
61 µL/min/mg | 101 µL/min/mg | 107 µL/min/mg | O=C(NCc1cccnc1)c1ccc2c(c1)N=C(c1ccc(F)cc1)c1ccccc1S2 [drawing 1724]
9 µL/min/mg | 238 µL/min/mg | 58 µL/min/mg | O=C(NCc1cccc(Cl)c1)c1ccc2c(c1)N=C(c1ccc(Cl)cc1)c1ccccc1S2 [drawing 1725]
39 µL/min/mg | 83 µL/min/mg | 70 µL/min/mg | O=C(NCc1cccnc1)c1ccc2c(c1)N=C(c1ccc(Br)cc1)c1ccccc1S2 [drawing 1728]
32 µL/min/mg | 187 µL/min/mg | 99 µL/min/mg | O=C(NCc1cccs1)c1ccc2c(c1)N=C(c1cccc(Cl)c1)c1ccccc1S2 [drawing 1733]
17 µL/min/mg | 90 µL/min/mg | 76 µL/min/mg | O=C(NCc1cccs1)c1ccc2c(c1)N=C(c1ccc(Cl)cc1)c1ccccc1S2 [drawing 1735]
1 µL/min/mg | – | 5 µL/min/mg | O=C(NCc1ccc(Cl)cc1Cl)c1ccc2c(c1)N=C(c1ccc(Cl)cc1)c1ccccc1S2 [drawing 1796]
100 µL/min/mg | – | 208 µL/min/mg | O=C(NCCc1ccc(Cl)cc1)c1ccc2c(c1)N=C(c1ccc(F)cc1)c1ccccc1S2 [drawing 1799]
18 µL/min/mg | – | 62 µL/min/mg | CC(NC(=O)c1ccc2c(c1)N=C(c1ccc(Cl)cc1)c1ccccc1S2)c1ccccc1 (stereo not shown) [drawing 1804]
54 µL/min/mg | – | 122 µL/min/mg | O=C(NCCc1ccc(Cl)cc1)c1ccc2c(c1)N=C(c1ccc(Cl)cc1)c1ccccc1S2 [drawing 1807]
